Experimental data as given in patent publication US8030453B2, “Methods of making an antibody that binds a chemerin polypeptide” (Euroscreen S.A., priority 2001, dated 2011).
Like-named read-outs stand apart in the source and are kept apart here. Peptide text beside a SMILES is read from it.

Assays:
[1] = target: T1, human ChemerinR (ChemR23) expressed in CHO-K1 cells (Homo sapiens, UniProt Q99788); experiment: aequorin-based intracellular Ca2+ release assay; format: cell-based
T1 construct: This fragment was subcloned into the pcDNA3 (Invitrogen) vector; expressed in transfected cells; host or cells: CHO-K1 (co-expressing mitochondrial apoaequorin and Galpha16)
T1 sequence (Q99788 3-373): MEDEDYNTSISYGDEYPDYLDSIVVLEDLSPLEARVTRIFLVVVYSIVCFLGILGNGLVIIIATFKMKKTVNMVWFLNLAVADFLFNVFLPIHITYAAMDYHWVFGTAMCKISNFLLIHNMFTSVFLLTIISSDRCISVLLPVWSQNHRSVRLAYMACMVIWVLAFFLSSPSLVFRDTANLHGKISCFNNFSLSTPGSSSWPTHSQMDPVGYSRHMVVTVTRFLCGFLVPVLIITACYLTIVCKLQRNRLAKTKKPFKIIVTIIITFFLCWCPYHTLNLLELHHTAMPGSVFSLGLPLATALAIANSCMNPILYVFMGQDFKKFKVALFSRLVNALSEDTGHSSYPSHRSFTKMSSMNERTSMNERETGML
Experimental: Briefly, ChemerinR-expressing clones are transfected to coexpress mitochondrial apoaequorin and Gα16. Cells are incubated with 5 μM Coelenterazine H (Molecular Probes) for 4 hours at room temperature, washed in DMEM-F12 culture medium and resuspended at a concentration of 0.5×10^6 cells/ml. Cells are then mixed with test agonist peptides and light emission by the aequorin is recorded with a luminometer for 30 sec. Results are expressed as Relative Light Units (RLU). Controls include assays using membranes isolated from cells not expressing ChemerinR (mock-transfected), in order to exclude possible non-specific effects of the candidate compound.
ChemerinR-expres sing clones have been obtained by transfection of CHO-K1 cells to coexpressing mitochondrial apoaequorin and Gα16, limiting dilution and selection by northern blotting. Positive clones were used for screening with human ovarian cancer ascites extracts prepared as described above. […] Briefly, cells were collected from plates in PBS containing 5 mM EDTA, pelleted and resuspended at 5×10^6 cells/ml in DMEM-F12 medium. Cells were incubated with 5 μM Coelenterazine H (Molecular Probes) for 4 hours at room temperature. Cells were then washed in DMEM-F12 medium and resuspended at a concentration of 0.5×10^6 cells/ml. Cells were then mixed with test agonist peptides or plates containing tissue extracts and the light emission was recorded for 30 sec using a Microlumat luminometer (Perkin Elmer). Results are expressed as Relative Light Units (RLU).

[2] = target: T2, ChemerinR expressing CHO-K1 cells (Homo sapiens, UniProt Q99788); experiment: competition binding assay with 125I-[…] tracer; conditions: mean±s.e.m for 3 independent experiments
T2 construct: This fragment was subcloned into the pcDNA3 (Invitrogen) vector; expressed in transfected cells; host or cells: CHO-K1
T2 sequence (Q99788 3-373): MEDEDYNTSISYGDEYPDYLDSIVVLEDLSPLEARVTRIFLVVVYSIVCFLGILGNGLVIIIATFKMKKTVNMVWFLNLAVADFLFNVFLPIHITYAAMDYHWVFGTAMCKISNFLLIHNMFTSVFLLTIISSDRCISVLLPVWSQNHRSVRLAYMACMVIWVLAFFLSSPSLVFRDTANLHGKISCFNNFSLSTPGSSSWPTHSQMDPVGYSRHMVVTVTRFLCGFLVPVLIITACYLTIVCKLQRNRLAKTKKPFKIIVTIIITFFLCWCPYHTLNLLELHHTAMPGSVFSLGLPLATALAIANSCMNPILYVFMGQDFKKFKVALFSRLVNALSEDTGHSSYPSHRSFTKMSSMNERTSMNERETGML
Experimental: ChemerinR expressing CHO-K1 cells were collected from plates with PBS supplemented with 5 mM EDTA, gently pelleted for 2 min at 1000×g, and resuspended in binding buffer (50 mM HEPES, pH 7.4, 1 mM CaCl2, 5 mM MgCl2, 0.5% BSA). […] Total binding was measured in the absence of competitor, and nonspecific binding was measured in the presence of a 100-fold excess of unlabeled ligand. Samples were incubated for 90 min at 27° C. and then bound tracer was separated by filtration through GF/B filters presoaked in 0.5% BSA. Filters were counted in a […]-scintillation counter. Binding parameters were determined with the PRISM software (Graphpad Software) using nonlinear regression applied to a one-site competition model.

[3] = target: T3, ChemerinR (Homo sapiens, UniProt Q99788); experiment: Calcium flux - Aequoscreen assay; format: cell-based
T3 construct: This fragment was subcloned into the pcDNA3 (Invitrogen) vector; expressed in transfected cells; CHO-K1 elsewhere)
T3 sequence (Q99788 3-373): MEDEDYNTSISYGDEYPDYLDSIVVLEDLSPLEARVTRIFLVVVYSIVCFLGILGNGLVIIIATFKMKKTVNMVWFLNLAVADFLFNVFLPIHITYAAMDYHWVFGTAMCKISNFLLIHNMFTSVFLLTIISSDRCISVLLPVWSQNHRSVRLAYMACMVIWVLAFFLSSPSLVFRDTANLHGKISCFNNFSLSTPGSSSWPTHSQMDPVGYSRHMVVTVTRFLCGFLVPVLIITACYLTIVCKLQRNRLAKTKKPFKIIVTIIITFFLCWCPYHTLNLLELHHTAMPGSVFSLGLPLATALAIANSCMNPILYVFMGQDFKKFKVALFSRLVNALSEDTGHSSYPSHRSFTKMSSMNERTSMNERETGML
Experimental: ChemerinR expressing clones were transfected to coexpress mithochondrial apoaequorin and Gα16. Cells in mid-log phase, grown in media without antibiotics 18 hours prior to the test, were detached by gentle flushing with PBS-EDTA (5 mM EDTA), recovered by centrifugation and resuspended in “BSA medium” (DMEM/HAM's F12 with HEPES, without phenol red+0.1% BSA). Cells were then counted, centrifuged and resuspended in a 15 ml Falcon tube at a concentration of 1×10^6 cells/ml.
The Falcon tube, wrapped in aluminium foil, was then placed on a vertical rotating wheel and incubated at room temperature (temperature should be maintained below 22° C.) overnight in order to reconstitute active aequorin.
Cells were then diluted 1/10 in “BSA-medium” and incubated as described above for 60 min. Reference ligands were diluted in “BSA-medium” and distributed in a 96-well plate (50 μl/well). For each measurement, 50 μl of cells (i.e. 5 000 cells) were injected into each well of the plate containing the ligands, and the emitted light is recorded (FDSS, Hamamatsu) during 20 seconds following cells injection. Results were expressed as Relative Light Units (RLU).
The intensity of the emitted light was integrated, yielding for each well one value representative of the emitted light.

C[C@H](NC(=O)[C@H](Cc1ccccc1)NC(=O)[C@H](CCC(N)=O)NC(=O)CNC(=O)[C@@H]1CCCN1C(=O)[C@H](Cc1ccccc1)NC(=O)[C@H](Cc1ccccc1)NC(=O)[C@H](Cc1ccccc1)NC(=O)[C@H](CO)NC(=O)[C@H](Cc1c[nH]cn1)NC(=O)[C@@H](N)Cc1ccc(O)cc1)C(=O)N[C@@H](Cc1ccccc1)C(=O)N[C@@H](CO)C(=O)O (H-YHSFFFPGQFAFS-OH; N-terminus and C-terminus assumed)
EC50 [1]: 0.028 µM
Ki ([2]; Ki): 12.1 ± 4.97 nM
Ki ([2]; pKi): 11.2 nM

CC[C@H](C)[C@H](N)C(=O)N[C@@H](Cc1ccccc1)C(=O)N1CCC[C@H]1C(=O)NCC(=O)N[C@@H](CCC(N)=O)C(=O)N[C@@H](Cc1ccccc1)C(=O)N[C@@H](C)C(=O)N[C@@H](Cc1ccccc1)C(=O)N[C@@H](CO)C(=O)O (H-IFPGQFAFS-OH; N-terminus and C-terminus assumed)
EC50 [3]: 25.8 nM

C[C@H](NC(=O)[C@H](Cc1ccccc1)NC(=O)[C@H](CCC(N)=O)NC(=O)CNC(=O)[C@@H]1CCCN1C(=O)[C@H](Cc1ccccc1)NC(=O)[C@@H](N)Cc1ccc(O)cc1)C(=O)N[C@@H](Cc1ccccc1)C(=O)N[C@@H](CC(=O)O)C(N)=O (H-YFPGQFAFD-NH2; N-terminus assumed)
EC50 [3]: 4.3 nM

CC(C)[C@H](NC(=O)[C@@H](N)Cc1ccc(O)cc1)C(=O)N1CCC[C@H]1C(=O)NCC(=O)N[C@@H](CCC(N)=O)C(=O)N[C@@H](Cc1ccccc1)C(=O)N[C@@H](C)C(=O)N[C@@H](Cc1ccccc1)C(=O)N[C@@H](CO)C(=O)O (H-YVPGQFAFS-OH; N-terminus and C-terminus assumed)
EC50 ([3]; read-out: EC50): 43.8 nM

CC(C)C[C@H](N)C(=O)N[C@@H](Cc1ccccc1)C(=O)N1CCC[C@H]1C(=O)NCC(=O)N[C@@H](CCC(N)=O)C(=O)N[C@@H](Cc1ccccc1)C(=O)N[C@@H](C)C(=O)N[C@@H](Cc1ccccc1)C(=O)N[C@@H](CO)C(=O)O (H-LFPGQFAFS-OH; N-terminus and C-terminus assumed)
EC50 [3]: 66.3 nM

CC(C)C[C@H](NC(=O)[C@H](C)NC(=O)[C@H](CCCCN)NC(=O)[C@H](CO)NC(=O)[C@H](Cc1ccccc1)NC(=O)[C@H](C)NC(=O)[C@H](Cc1ccccc1)NC(=O)[C@H](CCC(N)=O)NC(=O)CNC(=O)[C@@H]1CCCN1C(=O)[C@H](Cc1ccccc1)NC(=O)[C@H](Cc1ccc(O)cc1)NC(=O)[C@H](Cc1ccccc1)NC(=O)[C@H](CO)NC(=O)[C@H](Cc1c[nH]cn1)NC(=O)[C@@H]1CCCN1C(=O)[C@H](CC(=O)O)NC(=O)[C@H](CCC(=O)O)NC(=O)CNC(=O)[C@H](C)NC(=O)[C@H](CCCNC(=N)N)NC(=O)[C@@H](N)CCC(N)=O)C(=O)N1CCC[C@H]1C(=O)N[C@@H](CCCNC(=N)N)C(=O)N[C@@H](CO)C(=O)O [Human prochemerin-25] (H-QRAGEDPHSFYFPGQFAFSKALPRS-OH; N-terminus and C-terminus assumed)
EC50 ([1]; truncated Chemerin peptides, values given in μM, read-out: Mean EC50): 160 ± 21 µM

C[C@H](NC(=O)[C@H](Cc1ccccc1)NC(=O)[C@H](CCC(N)=O)NC(=O)CNC(=O)[C@@H]1CCCN1C(=O)[C@H](Cc1ccccc1)NC(=O)[C@H](Cc1ccc(O)cc1)NC(=O)[C@@H](N)Cc1ccccc1)C(=O)N[C@@H](Cc1ccccc1)C(=O)N[C@@H](CO)C(=O)O [Human Chemerin-10] (H-FYFPGQFAFS-OH; N-terminus and C-terminus assumed)
EC50 [1]: 0.0082 ± 0.002 µM

C[C@H](NC(=O)[C@H](Cc1ccccc1)NC(=O)[C@H](CCC(N)=O)NC(=O)CNC(=O)[C@@H]1CCCN1C(=O)[C@H](Cc1ccccc1)NC(=O)[C@H](Cc1ccc(O)cc1)NC(=O)[C@H](Cc1ccccc1)NC(=O)[C@H](CO)NC(=O)[C@H](Cc1c[nH]cn1)NC(=O)[C@@H]1CCCN1C(=O)[C@H](CC(=O)O)NC(=O)[C@H](CCC(=O)O)NC(=O)CNC(=O)[C@H](C)NC(=O)[C@H](CCCNC(=N)N)NC(=O)[C@@H](N)CCC(N)=O)C(=O)N[C@@H](Cc1ccccc1)C(=O)N[C@@H](CO)C(=O)N[C@@H](CCCCN)C(=O)O [Human [Lys20] Chemerin-19] (H-QRAGEDPHSFYFPGQFAFSK-OH)
EC50 [1]: 170 µM

C[C@H](NC(=O)[C@H](Cc1ccccc1)NC(=O)[C@H](CCC(N)=O)NC(=O)CNC(=O)[C@@H]1CCCN1C(=O)[C@H](C)NC(=O)[C@@H](N)Cc1ccc(O)cc1)C(=O)N[C@@H](Cc1ccccc1)C(=O)N[C@@H](CO)C(=O)O [Human [Ala-2] Chemerin-9] (H-YAPGQFAFS-OH; N-terminus and C-terminus assumed)
EC50 ([1]; truncated Chemerin peptides, values in nM, read-out: Mean EC50): 0.155 ± 0.0416 µM

C[C@H](N)C(=O)N[C@@H](Cc1ccccc1)C(=O)N1CCC[C@H]1C(=O)NCC(=O)N[C@@H](CCC(N)=O)C(=O)N[C@@H](Cc1ccccc1)C(=O)N[C@@H](C)C(=O)N[C@@H](Cc1ccccc1)C(=O)N[C@@H](CO)C(=O)O [Human [Ala-1] Chemerin-9] (H-AFPGQFAFS-OH; N-terminus and C-terminus assumed)
EC50 [1]: 0.496 ± 0.08 µM

QRAGEDPHSFYFPGQ
Mean EC50 ([1]; result in words): inactif

C[C@H](NC(=O)[C@H](Cc1ccccc1)NC(=O)[C@H](CCC(N)=O)NC(=O)CNC(=O)[C@@H]1CCCN1)C(=O)N[C@@H](Cc1ccccc1)C(=O)N[C@@H](CO)C(=O)O [Human Chemerin-7, PGQFAFS] (H-PGQFAFS-OH)
EC50 [1]: 220 ± 100 µM

CC(C)C[C@H](NC(=O)[C@@H](N)Cc1ccccc1)C(=O)N1CCC[C@H]1C(=O)NCC(=O)N[C@@H](CCC(N)=O)C(=O)N[C@@H](Cc1ccccc1)C(=O)N[C@@H](C)C(=O)N[C@@H](Cc1ccccc1)C(=O)N[C@@H](CO)C(=O)O (H-FLPGQFAFS-OH; N-terminus and C-terminus assumed)
EC50 [3]: 29.1 nM

C[C@H](NC(=O)[C@H](Cc1ccccc1)NC(=O)[C@H](CCC(N)=O)NC(=O)CNC(=O)[C@@H]1CCCN1C(=O)[C@H](Cc1ccccc1)NC(=O)[C@H](Cc1ccc(O)cc1)NC(=O)[C@H](Cc1ccccc1)NC(=O)[C@H](CO)NC(=O)[C@H](Cc1c[nH]cn1)NC(=O)[C@@H]1CCCN1C(=O)[C@H](CC(=O)O)NC(=O)[C@H](CCC(=O)O)NC(=O)CNC(=O)[C@H](C)NC(=O)[C@H](CCCNC(=N)N)NC(=O)[C@@H](N)CCC(N)=O)C(=O)N[C@@H](Cc1ccccc1)C(=O)N[C@@H](CO)C(=O)O [Human Chemerin-19] (H-QRAGEDPHSFYFPGQFAFS-OH)
EC50 [1]: 0.0167 ± 0.0032 µM

B1: truncated PreprocHEMERIN: 157 amino acid truncated Preprochemerin polypeptide (SEQ ID NO: 73, FIG. 16) (protein, listed as Homo sapiens)
chain: MRRLLIPLALWLGAVGVGVAELTEAQRRGLQVALEEFHKHPPVQWAFQETSVESAVDTPFPAGIFVRLEFKLQQTSCRKRDWKKPECKVRPNGRKRKCLACIKLGSEDKVLGRLVHCPIETQVLREAEEHQETQCLRVQRAGEDPHSFYFPGQFAFS
EC50 ([1]; CHO cells expressing ChemerinR, aequorin assay, read-out: EC50 for activation of ChemerinR): 0.00427 µM
